How the values were obtained:
Format in all cases: in vivo, outbred Swiss mice
S. mansoni [1] = assay: First vaccination experiment against S. mansoni (Example 4, FIG. 11); conditions: 70 μg peptide + MPL-TDM + Al(OH)3, inguinal route, challenge 100 cercariae 60 days after last immunization, perfused 45 days later
Description: Percentage protection, {(C−V)/C}×100}, of outbred Swiss mice is given after vaccination and subsequent challenge with 100 cercariae. From left to right the bars correspond to vaccination with peptide 1.2, peptide 1.3, peptide 1.4, peptide 2.1, peptide 2.2, peptide 2.3, peptide 2.4, peptide 2.5, peptide 2.6, r-Sm14, saline extract (SE) administered via the footpad, SE administered via the inguinal route, adjuvant and PBS respectively. All peptides were administered via the inguinal route. All peptides were administered in the presence of the adjuvant monophosphoryl lipid A+trehalose dicorynomycolate (MPL-TDM, Ribi ImmunoChem Research Inc.)+Alum.
In this experiment, outbreed Swiss mice were immunized with two intradermal/subcutaneous doses at an interval of 7 days followed by a booster injection, 21 days later. In the case of the peptides, a dose of 70 μg in the presence of the adjuvant monophosphoryl lipid A+trehalose dimycolate (MPL-TDM, Ribi ImmunoChem Research Inc.) and Al(OH)3 was used for all injections. […]
(§1) For assays of protection against S. mansoni, the animals were challenged subcutaneously with 100 cercariae, 60 days after the last immunization and perfused 45 days later. Overall protection was calculated by the formula {(C−V)/C}×100, where C is the average number of worms in control animals and V is the average number of worms in vaccinated animals.

F. hepatica = assay: Fasciola hepatica protection assay (Example 6, FIG. 13); conditions: footpad, oral challenge 3 metacercariae, sacrifice 30 days after challenge
From the text: Due to the limited number of parasites used for challenge, animals are considered protected when they present sterile immunity, i.e. no adult worms are present after sacrifice. The mean protection is therefore given as the percentage of sterile animals at sacrifice. From left to right the bars correspond to peptide 1.1, peptide 1.3, peptide 1.4, peptide 2.1, peptide 2.5, r-Sm14+adjuvant, r-Sm14, adjuvant and PBS respectively. The adjuvant used was monophosphoryl lipid A+trehalose dicorynomycolate (MPL-TDM, Ribi ImmunoChem Research Inc.)+Alum.
This example refers to the use of some of the peptides described in Example 1 for vaccination against Fasciola hepatica in the Swiss mouse model. For the Fasciola hepatica protection assay each group (10 outbred Swiss mice/group) received three intradermal/subcutaneous doses via the footpad using an identical protocol to that described above for S. mansoni. Animals were vaccinated with either 70 μg of one of the sub-group of peptides described above (1.1, 1.3, 1.4, 2.1 and 2.5), emulsified in Ribi adjuvant (MPL-TDM) and Al(OH)3 or 10 μg of r-Sm14 (in the presence or absence of adjuvant), or an equivalent amount of adjuvant alone. Vaccinated and non-vaccinated control groups were simultaneously challenged orally with 3 metacercariae of F. hepatica 60 days after immunization and the sacrifice of all animals performed 30 days after challenge.

S. mansoni [2] = assay: Second vaccination experiment against S. mansoni, footpad route (Example 5, FIG. 12); conditions: challenge 100 cercariae; for Percentage protection {(C−V)/C}×100: 70 μg peptide + MPL-TDM + Al(OH)3, footpad route, perfused 45 days later; for Performance (protection) compared with recombinant whole protein r-Sm14: footpad route
Description: Percentage protection is given as in FIG. 9. From left to right the bars correspond to peptide 1.1, peptide 1.3, peptide 1.4, peptide 2.1, peptide 2.5, r-Sm14, adjuvant and PBS respectively. In this experiment all samples were administered via the footpad. All peptides were administered in the presence of adjuvant: monophosphoryl lipid A+trehalose dicorynomycolate (MPL-TDM, Ribi ImmunoChem Research Inc.)+Alum.
In this experiment an identical protocol as Example 4 was employed for a sub-group of peptides including those which appeared most promising (1.1; 1.3; 1.4 and 2.1) together with 2.5 as a control, but employing the footpad as the route of administration.
as §1, with “Animals” for “For assays of protection against S. mansoni, the animals”

[3] = with adjuvant MPL-TDM + Al(OH)3, 70 μg peptide or 10 μg r-Sm14

| Molecule | Percentage protection {(C−V)/C}×100 (S. mansoni [1]) | Percentage protection (percentage of sterile animals at sacrifice) (F. hepatica; [3]) [%] | Percentage protection {(C−V)/C}×100 (S. mansoni [2]) [%] | Performance (protection) compared with recombinant whole protein r-Sm14 (S. mansoni [2]) | Percentage protection (percentage of sterile animals at sacrifice) (F. hepatica; absence of adjuvant, 10 μg r-Sm14) [%] |
| --- | --- | --- | --- | --- | --- |
| KIGTSVFGTRTSKFDATEMVLDKEE [Peptide 2.6, 2.5 randomized; control peptide of identical amino acid composition] | no protection at all and zero |  |  |  |  |
| EKNSESKLTQ (Oligopeptide from Schistosoma mansoni) [Peptide 2.1, Loop between β-strands 6 and 7 of Sm14, residues 85 to 94] |  | 100 | 50 | equivalent to that seen for the recombinant whole protein |  |
| VTVGDVTANFDAVMSKLG (Oligopeptide derived from the fusion of two peptides from Schistosoma mansoni) [Peptide 1.3, Union of 1.1 and 1.2] |  | 50 |  | equivalent to that seen for the recombinant whole protein |  |
| EKFSESKLTFDGIVREVDGATMKTT (Oligopeptide derived from the fusion of two peptides from Schistosoma mansoni) [Peptide 2.5, Alternate modification to 2.3] | no protection at all and zero |  |  |  |  |
| VTVGDVTA (oligopeptide from Schistosoma mansoni) [Peptide 1.1, Loop between β-strands 9 and 10 of Sm14, residues 118 to 125] |  | 66.7 | ~50 | equivalent to that seen for the recombinant whole protein |  |
| VTVGDVTGGSDAVMSKLG (Oligopeptide derived from the fusion of two peptides from Schistosoma mansoni) [Peptide 1.4, 1.3 modified] |  | 100 |  | equivalent to that seen for the recombinant whole protein |  |
| r-Sm14: recombinant Sm14 protein expressed by the pRSETA-6×His-Sm14 construct in E. coli BL21(DE3) (protein, UniProt P29498 1-133, looked up, 6xHis tag) 14 kDa fatty acid-binding …: MSSFLGKWKLSESHNFDAVMSKLGVSWATRQIGNTVTPTVTFTMDGDKMTMLTESTFKNLSCTFKFGEEFDEKTSDGRNVKSVVEKNSESKLTQTQVDPKNTTVIVREVDGDTMKTTVTVGDVTAIRNYKRLS |  | 100 |  |  | 100 |
